Data taken from patent US9717681B2, “Formulations containing substituted imidazole derivatives” (R.P. Scherer Technologies, LLC, priority 2002, dated 2017).

Legend:
[1] = Pharmacokinetics of fast dispersing dosage form in dogs; type: in vivo, beagle dogs
Protocol: In this study fipamezole was administered orally as a fast dispersing tablet (formulation as for Example 3 above) (20 mg/kg) via the buccal cavity to pure bred beagle dogs (1 male and 1 female). Throughout the study (8 days, and 4 days pre-study) the subjects were monitored for viability, changes in behaviour, reaction to treatment and ill-health. In addition, body weight and food consumption were recorded. Blood was collected at 10, 20, 30 and 45 minutes and 1, 1.25, 1.5, 2, 2.5, 3, 4 and 8 hours after administration for plasma level analysis (LC/MS/MS method).

[2] = Protocol A: fipamezole administered orally in solution to healthy volunteers, pharmacokinetics, safety and tolerability; type: in vivo, human; details: for Cmax / Tmax / AUC(0-t) / half-life: male, human, plasma; for Cmax: po, human plasma
Protocol: (§1) Fipamezole was administered orally in solution in increasing doses (0.5, 1, 3, 9, 18, 30 and 60 mg) to healthy volunteers (Caucasian males, 18-35 years old, 60-90 kg body weight). Blood samples were taken at intervals for pharmacokinetic evaluation up to 24 hours after each dose. Concentrations of fipamezole in plasma were measured with HPLC-MS/MS. Safety and tolerability were evaluated by standard safety laboratory determinations, ECG recordings, blood pressure and heart rate measurements and by adverse event questioning. The pharmacokinetics were evaluated using the Topfit 2.0 pharmacokinetic program. Cmax and tmax were read from the concentration vs. time curves and the apparent elimination phase half lives from the semi-logarithmic terminal part of the curve. AUC values were calculated both for infinity and up to the last measurable data point.

[3] = Protocol B: fipamezole administered as buccal spray to healthy volunteers, pharmacokinetics and tolerability; type: in vivo, human; details: for Cmax: human plasma
Protocol: as §1, with “point. […] The protocol used was substantially as for protocol A, except administration was by buccal spray (0.75, 1.5, 3, 7.5, 15, 30, 60 and 90 mg single doses).” for “point.”

[4] = beagle dogs, fast dispersing tablet (formulation as Example 3), 20 mg/kg via buccal cavity

For `CCC1(c2c[nH]cn2)Cc2ccc(F)cc2C1.Cl` (centres unmarked) [fipamezole, 4-(2-ethyl-5-fluoro-indan-2-yl)-1H-imidazole, hydrochloride salt], which Absorption [1, 4] is on record?
The Absorption was “rapidly absorbed”.

And the “Time to peak plasma concentration” value [1, 4]?
Its value is at most 10 min.

What about the “Effect on body weight” value ([1]; beagle dogs, fast dispersing tablet, 20 mg/kg) of the same compound?
Its value is “no adverse effect”.

What about the “Food consumption on the day of administration” value ([1]; beagle dogs, fast dispersing tablet, 20 mg/kg, probably due to frequent blood collection) of the same compound?
The value was “low”.

And the Adverse clinical signs ([1]; female beagle dog, fast dispersing tablet (formulation as Example 3), 20 mg/kg via buccal cavity)?
Its Adverse clinical signs is “No adverse clinical signs”.

And the Adverse clinical signs ([1]; male beagle dog, fast dispersing tablet (formulation as Example 3), 20 mg/kg via buccal cavity)?
Its Adverse clinical signs is “elevated pulse rate”.

What about the Cmax ([2]; 0.5 mg) of the same compound?
The Cmax was 0.05 ng/mL.

What about the Cmax ([2]; 1 mg) of the same compound?
Its Cmax is 0.08 ng/mL.

And the Cmax ([2]; 3 mg)?
Its Cmax is 0.23 ng/mL.

What about the Cmax ([2]; 9 mg) of the same compound?
Its Cmax is 1.09 ng/mL.

What about the Cmax ([2]; 18 mg) of the same compound?
The Cmax was 1.31 ng/mL.

And the Cmax ([2]; 60 mg)?
The Cmax was about 2 ng/mL.

What about the Tmax ([2]; oral solution, dose 0.5 mg) of the same compound?
Its Tmax is 0.88 h.

And the AUC(0-t) ([2]; oral solution, dose 1 mg)?
The AUC(0-t) was 0.1 ng·h/mL.

And the Tmax ([2]; oral solution, dose 1 mg)?
Its Tmax is 0.83 h.

What about the AUC(0-t) ([2]; oral solution, dose 3 mg) of the same compound?
Its AUC(0-t) is 0.3 ng·h/mL.

And the Tmax ([2]; oral solution, dose 3 mg)?
Its Tmax is 0.67 h.

What about the AUC(0-t) ([2]; oral solution, dose 9 mg) of the same compound?
The AUC(0-t) was 4.2 ng·h/mL.

What about the Tmax ([2]; oral solution, dose 9 mg) of the same compound?
Its Tmax is 0.67 h.

What about the half-life ([2]; oral solution, dose 9 mg) of the same compound?
The half-life was 2.2 h.

What about the AUC(0-t) ([2]; oral solution, dose 18 mg) of the same compound?
Its AUC(0-t) is 6 ng·h/mL.

And the Tmax ([2]; oral solution, dose 18 mg)?
Its Tmax is 0.83 h.

What about the half-life ([2]; oral solution, dose 18 mg) of the same compound?
Its half-life is 2.4 h.

And the AUC(0-t) ([2]; oral solution, dose 30 mg)?
Its AUC(0-t) is 6.8 ng·h/mL.

What about the Tmax ([2]; oral solution, dose 30 mg) of the same compound?
The Tmax was 1.25 h.

And the half-life ([2]; oral solution, dose 30 mg)?
The half-life was 3.1 h.

And the AUC(0-t) ([2]; oral solution, dose 60 mg)?
Its AUC(0-t) is 8.2 ng·h/mL.

What about the Tmax ([2]; oral solution, dose 60 mg) of the same compound?
The Tmax was 1.06 h.

What about the half-life ([2]; oral solution, dose 60 mg) of the same compound?
Its half-life is 1.8 h.

What about the “Level of absorption vs dose” value ([2]; oral solution, 0.5-60 mg) of the same compound?
The value was “not dose-proportional”.

And the Safety and tolerability ([2]; oral solution, 0.5-60 mg, healthy volunteers)?
The Safety and tolerability was “safe and well tolerated”.

What about the “Absorption from the buccal mucosa into systemic circulation” value [3] of the same compound?
Its value is “rapidly absorbed in a dose-dependent manner”.

And the “Relation between dose and Cmax and AUC0-inf values” [3]?
Its value is “linear correlation”.

What about the Tolerability ([3]; all doses 0.75-90 mg single doses) of the same compound?
Its Tolerability is “well tolerated”.

And the Tmax ([3]; dose 0.75 mg)?
Its Tmax is 0.72 h.

What about the Tmax ([3]; dose 1.5 mg) of the same compound?
Its Tmax is 0.72 h.

What about the Tmax ([3]; dose 7.5 mg) of the same compound?
The Tmax was 0.72 h.

And the Tmax ([3]; dose 15 mg)?
The Tmax was 0.72 h.

And the Tmax ([3]; dose 30 mg)?
The Tmax was 0.72 h.

What about the Cmax ([3]; dose 30 mg) of the same compound?
Its Cmax is 49.23 ng/mL.

And the “Adverse effects seen after administration” value ([3]; frequently seen after administration)?
The value was “buccal erythema and whitening”.

And the Cmax ([3]; male, dose 0.75 mg, read-out: Cmax)?
The Cmax was 1.53 ng/mL.

And the Cmax ([3]; male, dose 1.5 mg, read-out: Cmax)?
The Cmax was 3.13 ng/mL.

And the Cmax ([3]; male, dose 3 mg, read-out: Cmax)?
Its Cmax is 4.76 ng/mL.

What about the Cmax ([3]; male, dose 7.5 mg, read-out: Cmax) of the same compound?
The Cmax was 13 ng/mL.

And the Cmax ([3]; male, dose 15 mg, read-out: Cmax)?
The Cmax was 25.9 ng/mL.

What about the Cmax ([3]; male, dose 60 mg, read-out: Cmax) of the same compound?
Its Cmax is 92.9 ng/mL.

And the Cmax ([3]; male, dose 90 mg, read-out: Cmax)?
The Cmax was 172 ng/mL.

What about the AUC(0-t) ([3]; male, human, plasma, dose 0.75 mg) of the same compound?
The AUC(0-t) was 4.6 ng·h/mL.

And the half-life ([3]; male, human, plasma, dose 0.75 mg, read-out: t1/2 (converted))?
The half-life was 1.47 h.

What about the AUC(0-t) ([3]; male, human, plasma, dose 1.5 mg) of the same compound?
Its AUC(0-t) is 9.99 ng·h/mL.

What about the half-life ([3]; male, human, plasma, dose 1.5 mg, read-out: t1/2 (converted)) of the same compound?
Its half-life is 1.65 h.

What about the AUC(0-t) ([3]; male, human, plasma, dose 3 mg) of the same compound?
The AUC(0-t) was 15.4 ng·h/mL.

And the half-life ([3]; male, human, plasma, dose 3 mg, read-out: t1/2 (converted))?
Its half-life is 1.6 h.

What about the Tmax ([3]; male, human, plasma, dose 3 mg, read-out: tmax) of the same compound?
Its Tmax is 0.78 h.

And the AUC(0-t) ([3]; male, human, plasma, dose 7.5 mg)?
The AUC(0-t) was 40.8 ng·h/mL.

And the half-life ([3]; male, human, plasma, dose 7.5 mg, read-out: t1/2 (converted))?
The half-life was 1.78 h.

And the AUC(0-t) ([3]; male, human, plasma, dose 15 mg)?
Its AUC(0-t) is 84.1 ng·h/mL.

What about the half-life ([3]; male, human, plasma, dose 15 mg, read-out: t1/2 (converted)) of the same compound?
Its half-life is 1.97 h.

And the AUC(0-t) ([3]; male, human, plasma, dose 30 mg)?
Its AUC(0-t) is 157 ng·h/mL.

And the half-life ([3]; male, human, plasma, dose 30 mg, read-out: t1/2 (converted))?
Its half-life is 2.12 h.

And the AUC(0-t) ([3]; male, human, plasma, dose 60 mg)?
Its AUC(0-t) is 231 ng·h/mL.

What about the half-life ([3]; male, human, plasma, dose 60 mg, read-out: t1/2 (converted)) of the same compound?
The half-life was 3 h.

And the Tmax ([3]; male, human, plasma, dose 60 mg, read-out: tmax)?
Its Tmax is 0.46 h.

What about the AUC(0-t) ([3]; male, human, plasma, dose 90 mg) of the same compound?
The AUC(0-t) was 467 ng·h/mL.

And the half-life ([3]; male, human, plasma, dose 90 mg, read-out: t1/2 (converted))?
The half-life was 3.16 h.

And the Tmax ([3]; male, human, plasma, dose 90 mg, read-out: tmax)?
Its Tmax is 0.53 h.

What about the half-life ([3]; male, human, plasma, range over doses, longer times at larger doses, read-out: Apparent elimination phase half life) of the same compound?
Its half-life is 1.2 to 3.5 h.
